Molecular target: Grb2 SH2 domain (Homo sapiens, UniProt P62993)
Test: Isothermal titration calorimetry
Format: binding
Settings: for Ka / ΔG^o / ΔH^o / ΔS^o / −TΔS^o: ITC at 298 K, average of at least two experiments; for Ka: association constant

Chain of Grb2 SH2 domain (P62993 60-152 limits assumed): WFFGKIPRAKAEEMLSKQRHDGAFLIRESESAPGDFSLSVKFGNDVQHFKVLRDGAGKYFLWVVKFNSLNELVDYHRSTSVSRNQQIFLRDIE

Ka | ΔG^o | ΔH^o | ΔS^o | −TΔS^o | difference in binding enthalpies of 7 and 8 (ITC, 7 vs 8) | fold greater affinity than linear control 8 (ITC, macrocycle 7 vs linear control 8) | fold lower affinity than acyclic control 4 (ITC, macrocycle vs its acyclic control) | Substance
(2.3 ± 0.21) × 10^6 M^−1 | -8.7 ± 0.06 kcal/mol | -4.3 ± 0.32 kcal/mol | 14.8 ± 0.54 cal mol^−1K^−1 | -4.4 ± 0.16 kcal/mol | – | – | – | pYVNV (head to tail) [compound 2]
(1.0 ± 0.20) × 10^7 M^−1 | -9.6 ± 0.09 kcal/mol | -4.3 ± 0.57 kcal/mol | 17.7 ± 1.20 cal mol^−1K^−1 | -5.3 ± 0.36 kcal/mol | 2 kcal/mol | about two-fold | – | pYVNVP (head to tail) [compound 7]
(4.7 ± 0.11) × 10^4 M^−1 | -6.4 ± 0.01 kcal/mol | -3.5 ± 0.26 kcal/mol | 9.8 ± 0.20 cal mol^−1K^−1 | -2.9 ± 0.06 kcal/mol | – | – | about 10 fold | pYVNG (head to tail) [compound 1]
